Measurements from patent publication US20250296956A1, “POLYPEPTIDE, PREPARATION METHOD, AND USE THEREOF” (Hunan University, priority 2022, published 2025).
Bridge positions count the residues as written; N and C are the ends. Ends that are not written are not given here. Peptide text beside a SMILES is read from it.

Columns and labels:
[1] = system: DU145 (human prostate cancer cells); settings: for effect of mutation of R9-MPF13 on the anti-proliferative effect: relative to R9-MPF13; for inhibitory effect on the proliferation of prostate cancer cells DU145: DU145, 48 hours, MTT
Procedure: 5.2 Some of the polypeptides in Table 1 were prepared into a 10 mM mother solution with sterile pure water, and the mother solution is gradiently diluted with a basal culture medium, the diluted polypeptide solution was added to 96-well plates with DU145 cells pre-laid, 100 μL per well, and four replicates for each concentration. After 48 hours of treatment, the modified MTT kit was used to treat and measure the OD value at 580 nm, and the results were calculated and analyzed.
(§4) The experiment method includes: the polypeptide was prepared into a 10 mM mother solution with sterile pure water, and after gradient dilution with a basal culture medium, the diluted polypeptide solution was added to a 96-well plate with various cells pre-laid, 100 μL per well, and four replicates for each concentration. After 48 hours of treatment, the modified MTT kit was used to treat and measure the OD value at 580 nm, and the results are calculated and analyzed.

RNA methylation = test: Determination of RNA methylation (m6A) in prostate cancer cells, dot blot; type: cell-based, human; settings: PC3 and DU145 cells, 12 hours
Procedure: In FIG. 3, MB is methylene blue staining, and m^6A is methylation content. 500 ng and 3000 ng are the loaded sample amounts of RNA in the experiment.

METTL3 = target: T1, METTL3 (Homo sapiens, UniProt Q86U44); test: Inhibition of METTL3 expression in prostate cancer cells, immunoblot; type: cell-based; settings: PC3 and DU145 cells, 20 μM, 24 hours
T1 construct: endogenous in cells; host or cells: PC3 and DU145 cells
T1 sequence (Q86U44 2-580 limits assumed): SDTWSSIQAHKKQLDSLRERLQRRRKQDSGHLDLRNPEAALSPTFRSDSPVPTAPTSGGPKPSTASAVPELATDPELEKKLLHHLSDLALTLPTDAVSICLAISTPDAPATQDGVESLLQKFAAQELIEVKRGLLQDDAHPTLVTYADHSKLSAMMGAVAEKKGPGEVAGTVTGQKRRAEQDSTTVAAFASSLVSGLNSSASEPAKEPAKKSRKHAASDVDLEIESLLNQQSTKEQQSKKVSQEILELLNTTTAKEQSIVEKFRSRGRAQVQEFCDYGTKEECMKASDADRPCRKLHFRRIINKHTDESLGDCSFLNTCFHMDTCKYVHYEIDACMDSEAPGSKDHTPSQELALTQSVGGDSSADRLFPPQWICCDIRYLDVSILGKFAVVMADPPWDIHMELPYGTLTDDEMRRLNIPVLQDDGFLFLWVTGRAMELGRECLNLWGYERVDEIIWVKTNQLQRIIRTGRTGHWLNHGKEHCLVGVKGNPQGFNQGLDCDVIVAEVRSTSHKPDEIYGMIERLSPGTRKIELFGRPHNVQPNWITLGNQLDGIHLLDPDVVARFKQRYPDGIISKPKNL
Procedure: Referring to FIG. 4, a certain amount of polypeptide was weighed and dissolved into a 50 mM mother solution, the polypeptides R9, RM3, and RSM3 were prepared into a 50 mM mother solution with sterile pure water, after gradient dilution, the mother solution were added to a 6-well plate with PC3 and DU145 cells pre-laid, the final concentration of the polypeptide was 20 μM, 2 mL per well, and three replicates were used for each concentration. After 24 hours of treatment, the cells were lysed to extract cell proteins, and the proteins were separated by electrophoresis and transferred to a PVDF membrane, to incubate the primary antibody and secondary antibody of METTL3, and finally exposed for imaging.
In FIG. 4, GAPDH is an internal reference in the immunoblotting experiment (WB experiment).

[2] = system: PC3 prostate cancer cells with high expression of METTL3; test: Anti-tumor experiment in vivo, PC3 prostate tumor-bearing mouse model; design: species or system BALB/c nude mice; settings: for body weight changes: tumor model mice
Procedure: (B) Anti-tumor experiment in vivo: a prostate tumor-bearing mouse model is selected, the specific steps to construct the animal model are as follows: PC3 prostate cancer cells with high expression of METTL3 were cultured to a logarithmic growth phase, the PC3 prostate cancer cells were digested, collected, and prepared into a cell suspension with a concentration of 1×10^7 cells/mL. 4 to 6 week-old male and female BALB/c nude mice were taken, and were injected with 100 μL of cell suspension into the back of the hind limbs, to establish a tumor model. After a diameter of the mouse tumor grows to about 0.5 cm, the mice were randomly divided into groups according to the experimental requirements: PBS, R9, RM3, RSM3, etc. Peritumoral administration is performed on the mice, once every two days, for two consecutive weeks.

[3] = Drug safety assessment in vivo, blood indexes; design: species or system C57BL/C mice; settings: 50 mg/kg intraperitoneal once, 24 hours; for platelets (PLT) / red blood cells (RBC) / white blood cells (WBC) in the blood: compared with R9 and PBS; for white blood cells (WBC) in the blood / hemoglobin (HMGB): within the normal range
Procedure: Referring to FIGS. 7A to 7H, (A) drug safety assessment in vivo: C57BL/C mice raised for 7 weeks were intraperitoneally injected with a dose of 50 mg/kg (R9, RM3, RSM3) once, after 24 hours, the mice were sacrificed and the blood of the mice was taken to measure indexes such as white blood cells, platelets, red blood cells, and hemoglobin, to analyze toxicity of the drug to normal animals.

PC3 cells = test: Growth/proliferation inhibition, CCK-8 and clone formation, PC3; type: cell-based, human; settings: for effect of inhibiting cell growth after combining with the cell-penetrating peptide R9: CCK-8, 24 hours, peptide connected with R9
Procedure: (§1) 5.1 Referring to FIG. 5A, the polypeptides R9, RM3, and RSM3 were prepared into a 50 mM mother solution with sterile pure water, and the mother solution was gradiently diluted with a basal culture medium, the diluted peptide solution was added to 96-well plates pre-laid with PC3 and DU145 cells, 100 μL per well, and three replicates for each concentration. After 24 h of treatment, the OD value at 450 nm was measured with a CCK-8 kit, and the results were calculated and analyzed.
(§2) FIG. 5B illustrates a clone formation experiment, the grown PC3 and DU145 cells were digested with 0.25% trypsin and the number of cells were counted, 300 cells were added to each well of the six-well plate, and 2 ml of complete culture medium was added to continue culturing for 24 hours. M3, R9, RM3, and RSM3 were added to each well and cultured for 7 days, the medium was discarded, the cells were washed, stained with crystal violet, and then microscopically photographed, and the number of the cells were counted.
(§3) Referring to FIG. 6, the above two polypeptides were prepared into a 50 mM mother solution with sterile pure water, and then gradiently diluted with a basal culture medium, the diluted peptide solution was added to a 96-well plate pre-laid with PC3 and DU145 cells, 100 μL per well, and three replicates for each concentration. After 24 hours of treatment, the OD value was measured at 450 nm using CCK-8, and the obtained values were calculated.

DU145 cells = test: Growth/proliferation inhibition, CCK-8 and clone formation, DU145; type: cell-based, human; settings: for effect of inhibiting cell growth after combining with the cell-penetrating peptide R9: CCK-8, 24 hours, peptide connected with R9
Procedure: as §1, §2, §3

[4] = system: A375 (human malignant melanoma); settings: 48 h
Procedure: as §4

[5] = system: K562 (human chronic myeloid leukemia cells); settings: 48 h
Procedure: as §4

[6] = system: OVCAR-3 (ovarian adenocarcinoma cells); settings: 48 h
Procedure: as §4

[7] = system: A549 (lung cancer human alveolar basal epithelial cells); settings: 48 h
Procedure: as §4

[8] = system: Hela (human anterior cervical cancer cells); settings: 48 h
Procedure: as §4

[9] = system: HCT116 (colorectal cancer cell line); settings: 48 h
Procedure: as §4

[10] = system: HepG2 (human hepatoblastoma cells); settings: 48 h
Procedure: as §4

[11] = system: SaoS2 (human osteosarcoma cells); settings: 48 h
Procedure: as §4

METTL3 and METTL14 = METTL3 and METTL14 (Homo sapiens, UniProt Q86U44); test: Binding to METTL3 and METTL14 proteins in vitro
Chain of METTL3 and METTL14 (Q86U44 whole entry, species assumed): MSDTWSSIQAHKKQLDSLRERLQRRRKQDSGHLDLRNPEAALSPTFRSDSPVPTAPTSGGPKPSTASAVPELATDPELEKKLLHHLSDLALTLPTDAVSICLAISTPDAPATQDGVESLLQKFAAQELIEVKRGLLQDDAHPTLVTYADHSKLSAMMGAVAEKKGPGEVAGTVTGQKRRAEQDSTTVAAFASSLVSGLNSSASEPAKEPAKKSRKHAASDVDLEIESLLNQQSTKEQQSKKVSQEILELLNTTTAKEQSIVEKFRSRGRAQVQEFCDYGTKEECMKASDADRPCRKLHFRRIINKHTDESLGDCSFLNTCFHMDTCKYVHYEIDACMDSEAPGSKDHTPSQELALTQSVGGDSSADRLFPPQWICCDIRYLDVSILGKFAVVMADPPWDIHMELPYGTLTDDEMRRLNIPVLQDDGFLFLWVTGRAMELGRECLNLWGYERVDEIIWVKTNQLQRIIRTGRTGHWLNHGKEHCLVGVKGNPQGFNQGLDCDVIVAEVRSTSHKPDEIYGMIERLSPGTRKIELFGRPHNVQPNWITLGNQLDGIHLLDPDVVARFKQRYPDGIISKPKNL

[12] = peritumoral administration once every two days for two weeks
[13] = CCK-8 24 h, clone formation 7 days

## RRRRRRRRRRAMELGRECLNLA [Polypeptide R9-RA]
[1]
  effect of mutation of R9-MPF13 on the anti-proliferative effect: weaken the anti-proliferative effect

## RRRRRRRRRRKWELGRELLNLW [Polypeptide R9-RKWL]
[1]
  inhibitory effect on the proliferation of prostate cancer cells DU145: better inhibitory effect
  effect of mutation of R9-MPF13 on the anti-proliferative effect: enhance the anti-proliferative effect

## RSM3: stapled peptide from RM3, 10th and 17th cysteines connected through 4,4-bis(bromomethyl)biphenyl (RRRRRRRRRCMELGRECLNLW; linker 10-17 via 4,4‑bis(bromomethyl)biphenyl)
RNA methylation
  inhibition of RNA methylation (m6A): better in terms of stability and methylation inhibition effect
RNA methylation; listed as R SM3
  inhibition of RNA methylation (m6A): significantly inhibit the RNA methylation
METTL3
  inhibition of the expression of METTL3: inhibit the expression of METTL3
[2]; compared with R9 group and PBS, peritumoral administration once every two days for two weeks
  tumor mass: significantly less
[2]; overall comparison of the METTL3 polypeptide inhibitors
  effect of inhibiting the growth of prostate tumors: more effective
[2]; [12]
  tumor volume changes: significantly inhibit the increase in tumor volume
  body weight changes: no significant effect on the body weight
[3]
  platelets (PLT): no significant effect
  red blood cells (RBC): no significant effect
  white blood cells (WBC) in the blood: slightly increased this index
  hemoglobin (HMGB): a certain reducing effect
PC3 cells; [13]
  inhibitory effect on the growth of prostate cancer cells: good inhibitory effect
DU145 cells; [13]
  inhibitory effect on the growth of prostate cancer cells: good inhibitory effect

## QLQRIIRTGRTGHWLNHG [Polypeptide M1, tested after being connected with the cell-penetrating peptide R9]
PC3 cells
  effect of inhibiting cell growth after combining with the cell-penetrating peptide R9: certain effect of inhibiting cell growth
DU145 cells
  effect of inhibiting cell growth after combining with the cell-penetrating peptide R9: certain effect of inhibiting cell growth

## RRRRRRRRRRKMELGRELLNLW-NH2 (C-terminus assumed) [Polypeptide R9-RKL]
[1]; 48 h
  IC50: < 11 µM
[1]
  inhibitory effect on the proliferation of prostate cancer cells DU145: better inhibitory effect
  effect of mutation of R9-MPF13 on the anti-proliferative effect: enhance the anti-proliferative effect
[4]
  IC50: < 11 µM
[5]
  IC50: < 11 µM
[6]
  IC50: < 11 µM
[7]
  IC50: < 11 µM
[8]
  IC50: < 11 µM
[9]
  IC50: < 11 µM
[10]
  IC50: < 11 µM
[11]
  IC50: < 11 µM

## RRRRRRRRRRKWCLGRELLCLW (stapled peptide precursor) [Polypeptide R9-PSRKWL]
[1]
  inhibitory effect on the proliferation of prostate cancer cells DU145: better inhibitory effect

## RRRRRRRRRRRMELGRELLNLW [Polypeptide R9-RRL]
[1]
  effect of mutation of R9-MPF13 on the anti-proliferative effect: enhance the anti-proliferative effect

## RRRRRRRRRRKMELGREMLNLW [Polypeptide R9-RKM]
[1]
  effect of mutation of R9-MPF13 on the anti-proliferative effect: enhance the anti-proliferative effect

## CSCC[C@H](NC(=O)[C@H](CS)NC(=O)[C@H](CCCNC(=N)N)NC(=O)[C@H](CCCNC(=N)N)NC(=O)[C@H](CCCNC(=N)N)NC(=O)[C@H](CCCNC(=N)N)NC(=O)[C@H](CCCNC(=N)N)NC(=O)[C@H](CCCNC(=N)N)NC(=O)[C@H](CCCNC(=N)N)NC(=O)[C@H](CCCNC(=N)N)NC(=O)[C@@H](N)CCCNC(=N)N)C(=O)N[C@@H](CCC(=O)O)C(=O)N[C@@H](CC(C)C)C(=O)NCC(=O)N[C@@H](CCCNC(=N)N)C(=O)N[C@@H](CCC(=O)O)C(=O)N[C@@H](CS)C(=O)N[C@@H](CC(C)C)C(=O)N[C@@H](CC(N)=O)C(=O)N[C@@H](CC(C)C)C(=O)N[C@@H](Cc1c[nH]c2ccccc12)C(N)=O [RM3] (H-RRRRRRRRRCMELGRECLNLW-NH2)
[2]; [12]
  body weight changes: no significant effect on the body weight
[3]
  platelets (PLT): no significant effect
  red blood cells (RBC): no significant effect
  white blood cells (WBC) in the blood: slightly increased this index
  hemoglobin (HMGB): a certain reducing effect

## ELGRECLNLW [Polypeptide M3]
METTL3 and METTL14
  binding to the proteins of METTL3 and METTL14: can bind

## FGRPHNVQ [Polypeptide M2, tested after being connected with the cell-penetrating peptide R9]
PC3 cells
  effect of inhibiting cell growth after combining with the cell-penetrating peptide R9: certain effect of inhibiting cell growth
DU145 cells
  effect of inhibiting cell growth after combining with the cell-penetrating peptide R9: certain effect of inhibiting cell growth

## RRRRRRRRRRKMELGREYLNLW [Polypeptide R9-RKY]
[1]
  effect of mutation of R9-MPF13 on the anti-proliferative effect: enhance the anti-proliferative effect

## RRRRRRRRRRAMEEGRECLNLW [Polypeptide R9-RE]
[1]
  effect of mutation of R9-MPF13 on the anti-proliferative effect: weaken the anti-proliferative effect

## RRRRRRRRRRKMELGREFLNLW [Polypeptide R9-RKF]
[1]
  effect of mutation of R9-MPF13 on the anti-proliferative effect: enhance the anti-proliferative effect
